Laboratory results reported in ChEMBL document CHEMBL1126962, “Antagonists of luteinising hormone-releasing hormone (LHRH). Progress towards non-peptide leads” (1993).

How the values were obtained:
Assay type in all cases: functional
Rattus norvegicus [1] = organism: Rattus norvegicus; experiment: Effective dose required to inhibit ovulation in normal cycling rats
Rattus norvegicus [2] = experiment: Effective dose required to inhibit ovulation in normal cycling rats at 1 mg/kg
Rattus norvegicus [3] = experiment: Effective dose required to inhibit ovulation in normal cycling rats at a dose of 2 mg/kg

Row | SMILES | ED50 (Rattus norvegicus [1]) [ug rat-1] | also measured
1 | CC(=O)N[C@H](Cc1ccc(Cl)cc1)C(=O)N[C@H](Cc1ccc(Cl)cc1)C(=O)N[C@H](Cc1c[nH]c2ccccc12)C(=O)N[C@@H](CO)C(=O)N[C@H]1CC(=O)NCCCC[C@@H](C(=O)N2CCC[C@H]2C(=O)N[C@H](C)C(N)=O)NC(=O)[C@H](CC(C)C)NC(=O)[C@@H](CCCN=C(N)N)NC1=O | 180 | –
2 | CC(C)C[C@@H]1NC(=O)[C@@H](CCCN=C(N)N)NC(=O)[C@@H]2CCC(=O)NCCCC[C@H](NC1=O)C(=O)N1CCC[C@H]1C(=O)N(C)[C@H](C)C(=O)N[C@H](Cc1ccc(Cl)cc1)C(=O)N[C@H](Cc1ccc(Cl)cc1)C(=O)N[C@H](Cc1c[nH]c3ccccc13)C(=O)N[C@@H](CO)C(=O)N2 | – | ED50 (Rattus norvegicus [2]): 200 ug rat-1; inhibition in vivo at 1 mg/kg (Rattus norvegicus [2]): 50%
3 | CC(C)C[C@@H]1NC(=O)[C@@H](CCCN=C(N)N)NC(=O)[C@@H]2CCC(=O)NCCCC[C@H](NC1=O)C(=O)N1CCC[C@H]1C(=O)N[C@H](C)C(=O)N[C@H](Cc1ccc(Cl)cc1)C(=O)N[C@H](Cc1ccc(Cl)cc1)C(=O)N[C@H](Cc1c[nH]c3ccccc13)C(=O)N[C@@H](CO)C(=O)N2 | – | inhibition in vivo at 2 mg/kg (Rattus norvegicus [3]): 40%
4 | CC(=O)N[C@H](Cc1ccc(Cl)cc1)C(=O)N[C@H](Cc1ccc(Cl)cc1)C(=O)N[C@H](Cc1c[nH]c2ccccc12)C(=O)N[C@@H](CO)C(=O)N[C@H]1CC(=O)NCCC[C@@H](C(=O)N2CCC[C@H]2C(=O)N[C@H](C)C(N)=O)NC(=O)[C@H](CC(C)C)NC(=O)[C@@H](CCCN=C(N)N)NC1=O | 540 | –
5 | CC(=O)N[C@H](Cc1ccc(Cl)cc1)C(=O)N[C@H](Cc1ccc(Cl)cc1)C(=O)N[C@H](Cc1c[nH]c2ccccc12)C(=O)N[C@@H](CO)C(=O)N[C@H]1CCC(=O)NCCCC[C@@H](C(=O)N2CCC[C@H]2C(=O)N[C@H](C)C(N)=O)NC(=O)[C@H](CC(C)C)NC(=O)[C@@H](CCCN=C(N)N)NC1=O | 90 | –
